Data: article PMC10410611, “Rhenium(I) Tricarbonyl Complexes of 1,10-Phenanthroline Derivatives with Unexpectedly High Cytotoxicity” (Inorganic Chemistry, 2023)

Key:
ctDNA [1] = system: ctDNA; design: method as in PMID 18467423; conditions: for ctDNA; cited from earlier work
ctDNA [2] = experiment: DNA melting; format: binding, calf; conditions: ctDNA 40 μM, compound 30 μM
Description: The DNA binding ability of complex 6 was confirmed by measuring the DNA melting temperature prior to complex binding. Briefly, 40 μM ctDNA was incubated with 30 μM of the complex at 37 °C for 15 min. Afterward, the absorbance of the solution was measured at 260 nm in each °C increment in temperature within the range from 60–97 °C. A Cary UV 300 (Agilent Technologies) was used to measure all absorbances. The experiment was programmed with a 1 °C/min temperature ramp rate from the temperature range 60–97 °C, and the holding time was 1 min. Finally, the absorbance of each experiment was normalized to 0 and 1 and further compared with the melting temperature of native ctDNA.

PC3 cells [3] = experiment: Cytotoxicity, Resazurin assay, hypoxic conditions; format: cell-based, human; conditions: for IC50: PC3, hypoxic conditions (2% O2), 48 h, Resazurin, read-out: IC50 (µM) ± S.D. Hypoxia; for Hypoxia resistance factor (ratio of IC50 in hypoxia and normoxia): PC3
Description: Initially, at least three consecutive cell passages were maintained in hypoxic conditions before starting any experiments.

PC3 cells [4] = experiment: Cytotoxicity, Resazurin assay, normoxic conditions; format: cell-based, human; conditions: for IC50: normoxic conditions (∼15% O2 level), 48 h, Resazurin, read-out: IC50 (μM) ± S.D. PC3
Description: (§1) The standard Resazurin assay was performed to determine the cytotoxicity of the synthesized complexes. […] After 24 h of the initial incubation period, the medium was replenished by a fresh metal complex-containing medium (100 μL/well) and incubated for an additional 48 h. Initially, the metal complex was dissolved in DMSO and the target concentration was achieved by further dilution with the medium. […] Each of the reported IC50 values is the mean of three individual experiments with standard deviation, and each concentration was assayed in sextuplicate in each successive experiment.

[5] = system: 3D multicellular PC3 cell spheroids; experiment: Cytotoxicity against 3D cell spheroid, AlamarBlue assay; format: cell-based, human; conditions: average diameter 435 μm, 72 h, normoxic, read-out: IC50 against 3D multicellular PC3 cells spheroid
Description: 1 × 10^4 PC3 cells were seeded in each well of a Corning 96 Well Ultra-Low Attachment Treated Spheroid Microplate. After 96 h of incubation at 37 °C in normoxic conditions, the average spheroid size observed was 435 μm. Half of the medium was replaced by an equal volume of complex-containing (two times of target concentrations) medium. After 72 h, the cell viability was measured using the AlamarBlue assay. Finally, the IC50 values were determined by using GraphPad Prism 5 software after applying four parameter fitting.

RPE-1 cells = experiment: Cytotoxicity, Resazurin assay, normoxic conditions; format: cell-based, human; conditions: normoxic conditions (∼15% O2 level), 48 h, read-out: IC50 (μM) ± S.D. RPE-1
Description: as §1

[6] = cited from earlier work

Compound: CC[n+]1c(-c2ccccc2)c2cc(N)ccc2c2ccc(N)cc21 [EB, ethidium bromide, reference compound]
- binding constant of EB (KEB) (ctDNA [1]): 1 × 10^7 M^–1
- shift of ctDNA melting temperature (ΔTm) (ctDNA [2]): 4 ± 0.1 °C

Compound: Nc1n[n+]([O-])c2ccccc2[n+]1[O-] [Tirapazamine, tirapazamine, reference compound]
- IC50 (PC3 cells [3]; Homo sapiens, PC-3): 20.4 ± 3 µM
- Hypoxia resistance factor (ratio of IC50 in hypoxia and normoxia) (PC3 cells [3]): 0.2
- IC50 (PC3 cells [4]; Homo sapiens, PC-3): ~100 µM
- cell killing in comparison to the control (PC3 cells [4]; PC3, normoxia, maximum tested concentration 100 µM): around 50%

Compound: N.N.[Cl][Pt][Cl] [cisplatin, reference compound]
- IC50 [5]: 6.22 µM
- Hypoxia resistance factor (ratio of IC50 in hypoxia and normoxia) (PC3 cells [3]): > 7
- IC50 (PC3 cells [3]): > 50 µM
- IC50 (RPE-1 cells): 36 ± 4 µM
- selectivity (ratio between IC50 against RPE-1 and IC50 against PC3 cells) (PC3 cells [4]; normoxic conditions): 5
- IC50 (PC3 cells [4]): 6.9 ± 0.5 µM

Compound: O.O=c1cccccc1[O][Re].[C-]#[O+].[C-]#[O+].[C-]#[O+] [fac-[Re(CO)3(Trop)(H2O)]]
- pKa [6]: 8.96 ± 0.02
